Measurements: patent publication US20230242530A1, “8-(AZETIDIN-1-YL)-[1,2,4]TRIAZOLO[1,5-A]PYRIDINYL COMPOUNDS, COMPOSITIONS AND METHODS OF USE THEREOF” (Genentech, Inc., priority 2016, published 2023)

How the values were obtained:
[1] = tested on: JAK1-dependent STAT6 phosphorylation downstream of IL-13 stimulation in BEAS-2B cells; assay: JAK1 pathway assay in cell lines: IL-13 p-STAT6 BEAS-2B; format: cell-based; details: BEAS-2B human bronchial epithelial cells, 1 hr compound, IL-13 15 min, MSD readout
Protocol: JAK1 Pathway Assay in Cell Lines was Carried Out as Follows:
Inhibitor potency (EC50) was determined in cell-based assays designed to measure JAK1 dependent STAT phosphorylation. As noted above, inhibition of IL-4, IL-13, and IL-9 signalling by blocking the Jak/Stat signaling pathway can alleviate asthmatic symptoms in pre-clinical lung inflammation models (Mathew et al., 2001, J Exp Med 193(9): 1087-1096; Kudlacz et. al., 2008, Eur J. Pharmacol 582(1-3): 154-161).
In one assay approach, TF-1 human erythroleukemia cells obtained from the American Type Culture Collection (ATCC; Manassas, Va.) were used to measure JAK1-dependent STAT6 phosphorylation downstream of IL-13 stimulation. Prior to use in the assays, TF-1 cells were starved of GM-CSF overnight in OptiMEM medium (Life Technologies, Grand Island, N.Y.) supplemented with 0.5% charcoal/dextran stripped fetal bovine serum (FBS), 0.1 mM non-essential amino acids (NEAA), and 1 mM sodium pyruvate. The assays were run in 384-well plates in serum-free OptiMEM medium using 300,000 cells per well. In a second assay approach, BEAS-2B human bronchial epithelial cells obtained from ATCC were plated at 100,000 cells per well of a 96-well plate one day prior to the experiment. The BEAS-2B assay was run in complete growth medium (bronchial epithelial basal medium plus bulletkit; Lonza; Basel, Switzerland).
Test compounds were serially diluted 1:2 in DMSO and then diluted 1:50 in medium just before use. Diluted compounds were added to the cells, for a final DMSO concentration of 0.2%, and incubated for 30 mi (for the TF-1 assay) or 1 hr (for the BEAS-2B assay) at 37 QC. Then, cells were stimulated with human recombinant cytokine at their respective EC90 concentrations, as previously determined for each individual lot. Cells were stimulated with IL-13 (R&D Systems, Minneapolis, Minn.) for 15 min at 37 °C. The TF-1 cell reactions were stopped by the direct addition of 10× lysis buffer (Cell Signaling Technologies, Danvers, Mass.), whereas the BEAS-2B cell incubations were halted by the removal of medium and addition of 1× lysis buffer. The resultant samples were frozen in the plates at −80 °C. Compound mediated inhibition of STAT6 phosphorylation was measured in the cell lysates using MesoScale Discovery (MSD) technology (Gaithersburg, Md.). EC50 values were determined as the concentration of compound required for 50% inhibition of STAT phosphorylation relative to that measured for the DMSO control.

[2] = target: T1, isolated recombinant JAK2 kinase domain (Homo sapiens, UniProt O60674); assay: JAK enzyme assay, JAK2 kinase domain (Caliper LabChip); format: biochemical; details: 0.2 nM JAK2, ATP 25 μM, Morrison tight binding model
T1 construct: isolated recombinant JAK1 and JAK2 kinase domain
T1 sequence (O60674 849-1124 limits assumed): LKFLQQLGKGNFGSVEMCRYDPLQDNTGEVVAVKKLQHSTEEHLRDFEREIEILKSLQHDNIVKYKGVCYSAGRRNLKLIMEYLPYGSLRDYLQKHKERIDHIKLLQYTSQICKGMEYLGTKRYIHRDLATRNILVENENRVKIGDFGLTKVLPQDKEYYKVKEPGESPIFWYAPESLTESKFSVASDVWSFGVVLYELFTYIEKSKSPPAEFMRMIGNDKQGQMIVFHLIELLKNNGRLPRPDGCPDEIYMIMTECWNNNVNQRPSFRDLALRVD
Protocol: (§1) JAK Enzyme Assays were Carried Out as Follows:
(§2) The activity of the isolated recombinant JAK1 and JAK2 kinase domain was measured by monitoring phosphorylation of a peptide derived from JAK3 (Val-Ala-Leu-Val-Asp-Gly-Tyr-Phe-Arg-Leu-Thr-Thr, fluorescently labeled on the N-terminus with 5-carboxyfluorescein) using the Caliper LabChip® technology (Caliper Life Sciences, Hopkinton, Mass.). […] Reactions were incubated at 22 °C in 384-well polypropylene microtiter plates for 30 minutes and then stopped by addition of 25 μL of an EDTA containing solution (100 mM HEPES buffer (pH 7.2), 0.015% Brij-35, 150 mM EDTA), resulting in a final EDTA concentration of 50 mM. After termination of the kinase reaction, the proportion of phosphorylated product was determined as a fraction of total peptide substrate using the Caliper LabChip® 3000 according to the manufacturer's specifications. Ki values were then determined using the Morrison tight binding model (Morrison, J. F., Biochim. Biophys. Acta. 185:269-296 (1969); William, J. W. and Morrison, J. F., Meth. Enzymol., 63:437-467 (1979)) modified for ATP-competitive inhibition [Ki=Ki,app/(1+[ATP]/Km,app)].

[3] = target: T2, isolated recombinant JAK1 kinase domain (Homo sapiens, UniProt P23458); assay: JAK enzyme assay, JAK1 kinase domain (Caliper LabChip); format: biochemical; details: 1.5 nM JAK1, ATP 25 μM, Morrison tight binding model
T2 construct: isolated recombinant JAK1 and JAK2 kinase domain
T2 sequence (P23458 875-1153 limits assumed): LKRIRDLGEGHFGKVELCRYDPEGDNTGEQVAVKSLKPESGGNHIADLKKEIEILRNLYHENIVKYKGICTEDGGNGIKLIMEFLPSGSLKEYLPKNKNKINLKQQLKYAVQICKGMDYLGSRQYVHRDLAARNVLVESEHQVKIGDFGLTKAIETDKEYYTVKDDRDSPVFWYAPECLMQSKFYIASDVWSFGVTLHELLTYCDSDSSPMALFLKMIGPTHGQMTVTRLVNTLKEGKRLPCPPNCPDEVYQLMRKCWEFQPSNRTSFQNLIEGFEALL
Protocol: as §1, §2

| Compound | Ki [2] [nM] | Ki [3] [nM] | EC50 [1] [nM] |
| --- | --- | --- | --- |
| CCc1cnn(C2(CC#N)CN(c3cccn4nc(Nc5cnn(CC(=O)N6CCC(CN7CCN(C(=O)OC)CC7)CC6)c5)nc34)C2)c1 [Example 39, methyl4-[[1-[2-[4-[[8-[3-(cyanomethyl)-3-(4-ethylpyrazol-1-yl)azetidin-1-yl]-[1,2,4]triazolo[1,5-a]pyridin-2-yl]amino]pyrazol-1-yl]acetyl]-4-piperidyl]methyl]piperazine-1-carboxylate] | 1.6 | 0.3 | 24 |
| CN1CCN(C(=O)Cn2cc(Nc3nc4c(N5CC(CC#N)(n6cc(-c7ccccc7)cn6)C5)cccn4n3)cn2)CC1 [Example 21, formic acid;2-[1-[2-[[1-[2-(4-methylpiperazin-1-yl)-2-oxo-ethyl]pyrazol-4-yl]amino]-[1,2,4]triazolo[1,5-a]pyridin-8-yl]-3-(4-phenylpyrazol-1-yl)azetidin-3-yl]acetonitrile] | 7.7 | 1.1 | 43 |
| COc1ccc(CCC2(CC#N)CN(c3cccn4nc(Nc5cnn(CC(=O)N6CCN(C)CC6)c5)nc34)C2)cc1 [Example 117, 2-[3-[2-(4-methoxyphenyl)ethyl]-1-[2-[[1-[2-(4-methylpiperazin-1-yl)-2-oxo-ethyl]pyrazol-4-yl]amino]-[1,2,4]triazolo[1,5-a]pyridin-8-yl]azetidin-3-yl]acetonitrile] | 2.4 | 0.4 | 20 |
| Cc1ccccc1-c1cnn(C2(CC#N)CN(c3cccn4nc(Nc5cnn(CC(=O)N6CCN(C7COC7)CC6)c5)nc34)C2)c1 [Example 122, formic acid;2-[3-[4-(o-tolyl)pyrazol-1-yl]-1-[2-[[1-[2-[4-(oxetan-3-yl)piperazin-1-yl]-2-oxo-ethyl]pyrazol-4-yl]amino]-[1,2,4]triazolo[1,5-a]pyridin-8-yl]azetidin-3-yl]acetonitrile] | 3.7 | 0.5 | 43 |
| CN1CCN(C(=O)Cn2cc(Nc3nc4c(N5CC(CC#N)(c6cccc(Cl)c6)C5)cccn4n3)cn2)CC1 [Example 35, 2-[3-(3-chlorophenyl)-1-[2-[[1-[2-(4-methylpiperazin-1-yl)-2-oxo-ethyl]pyrazol-4-yl]amino]-[1,2,4]triazolo[1,5-a]pyridin-8-yl]azetidin-3-yl]acetonitrile] | 2.8 | 0.8 | 39 |
| CN1CCN(C(=O)Cn2cc(Nc3nc4c(N5CC(CC#N)(CCc6ccccc6)C5)cccn4n3)cn2)CC1 [Example 76] | 0.9 | 0.3 | 16 |
| CN1CCN(C(=O)Cn2cc(Nc3nc4c(N5CC(CC#N)(N6CCC(F)(F)CC6)C5)cccn4n3)cn2)CC1 [Example 12, 2-[3-(4,4-difluoro-1-piperidyl)-1-[2-[[1-[2-(4-methylpiperazin-1-yl)-2-oxo-ethyl]pyrazol-4-yl]amino]-[1,2,4]triazolo[1,5-a]pyridin-8-yl]azetidin-3-yl]acetonitrile] | 2.4 | 0.9 | 27 |
| Cc1cc(Cl)ccc1C1(CC#N)CN(c2cccn3nc(Nc4cnn(CC(=O)N5CCN(C)CC5)c4)nc23)C1 [Example 24, 2-[3-(4-chloro-2-methyl-phenyl)-1-[2-[[1-[2-(4-methylpiperazin-1-yl)-2-oxo-ethyl]pyrazol-4-yl]amino]-[1,2,4]triazolo[1,5-a]pyridin-8-yl]azetidin-3-yl]acetonitrile] | 2.3 | 0.4 | 87 |

Continued, in another order:

| Ki [2] [nM] | Ki [3] [nM] | Compound | EC50 [1] [nM] |
| --- | --- | --- | --- |
| 0.3 | 0.1 | CSc1cnn(C2(CC#N)CN(c3cccn4nc(Nc5cn[nH]c5)nc34)C2)c1 [Example 144, 2-[3-(4-methylsulfanyIpyrazol-1-yl)-1-[2-(1H-pyrazol-4-ylamino)-[1,2,4]triazolo[1,5-a]pyridin-8-yl]azetidin-3-yl]acetonitrile] | 7 |
| 2.8 | 0.5 | COc1cnn(C2(CC#N)CN(c3cccn4nc(Nc5cnn(C)c5)nc34)C2)c1 [Example 137, 2-[3-(4-methoxypyrazol-1-yl)-1-[2-[(l-methylpyrazol-4-yl)amino]-[1,2,4]triazolo[1,5-a]pyridin-8-yl]azetidin-3-yl]acetonitrile] | 39 |
| 1.3 | 0.5 | CCc1cnn(C2(CC#N)CN(c3cccn4nc(Nc5ccc(C(=O)N6CCN(C)CC6)c(OC)c5)nc34)C2)c1 [Example 106, 2-[3-(4-ethylpyrazol-1-yl)-1-[2-[3-methoxy-4-(4-methylpiperazine-1-carbonyl)anilino]-[1,2,4]triazolo[1,5-a]pyridin-8-yl]azetidin-3-yl]acetonitrile] | 40 |
| 0.4 | 0.2 | N#CCC1(n2cc(C(F)(F)F)cn2)CN(c2cccn3nc(Nc4cn[nH]c4)nc23)C1 [Example 131, 2-[1-[2-(1H-pyrazol-4-ylamino)-[1,2,4]triazolo[1,5-a]pyridin-8-yl]-3-[4-(trifluoromethyl)pyrazol-1-yl]azetidin-3-yl]acetonitrile] | 43 |
| 0.3 | 0.2 | CC(C)c1cnn(C2(CC#N)CN(c3cccn4nc(Nc5cnn(C)c5)nc34)C2)c1 [Example 138, 2-[3-(4-isopropylpyrazol-1-yl)-1-[2-[(l-methylpyrazol-4-yl)amino]-[1,2,4]triazolo[1,5-a]pyridin-8-yl]azetidin-3-yl]acetonitrile] | 16 |
| 0.5 | 0.3 | Cn1cc(Nc2nc3c(N4CC(CC#N)(n5cc(C(F)(F)F)cn5)C4)cccn3n2)cn1 [Example 135, 2-[1-[2-[(l-methylpyrazol-4-yl)amino]-[1,2,4]triazolo[1,5-a]pyridin-8-yl]-3-[4-(trifluoromethyl)pyrazol-1-yl]azetidin-3-yl]acetonitrile] | 10 |
| 0.4 | 0.4 | N#CCC1(n2cc(C(F)(F)F)cn2)CN(c2cccn3nc(Nc4cnn(CC(=O)N5CCN(CCO)CC5)c4)nc23)C1 [Example 125, formic acid;2-[1-[2-[[1-[2-[4-(2-hydroxyethyl)piperazin-1-yl]-2-oxo-ethyl]pyrazol-4-yl]amino]-[1,2,4]triazolo[1,5-a]pyridin-8-yl]-3-[4-(trifluoromethyl)pyrazol-1-yl]azetidin-3-yl]acetonitrile] | 21 |
| 0.2 | 0.2 | CCc1cnn(C2(CC#N)CN(c3cccn4nc(Nc5cnn(CC(=O)N6CCN(CCOC)CC6)c5)nc34)C2)c1 [Example 46, 2-[3-(4-ethylpyrazol-1-yl)-1-[2-[[1-[2-[4-(2-methoxyethyl)piperazin-1-yl]-2-oxo-ethyl]pyrazol-4-yl]amino]-[1,2,4]triazolo[1,5-a]pyridin-8-yl]azetidin-3-yl]acetonitrile] | 7 |
| 4.1 | 0.7 | CCc1cnn(C2(CC#N)CN(c3cccn4nc(Nc5ccc(C(=O)N6CCN(C)CC6)cc5)nc34)C2)c1 [Example 38, 2-(3-(4-ethyl-1H-pyrazol-1-yl)-1-(2-((4-(4-methylpiperazine-1-carbonyl)phenyl)amino)-[1,2,4]triazolo[1,5-a]pyridin-8-yl)azetidin-3-yl)acetonitrile] | 615 |
